Active and inactive are the calls of the source. The rule behind the calls is not given here.
How the values were obtained:
[1] = target: T1, Progesterone receptor (Homo sapiens, UniProt P06401); assay: (§1) Agonist activity at progesterone receptor expressed in CHO cells by luciferase assay; assay type: functional, cell-based
T1 sequence (P06401 whole entry): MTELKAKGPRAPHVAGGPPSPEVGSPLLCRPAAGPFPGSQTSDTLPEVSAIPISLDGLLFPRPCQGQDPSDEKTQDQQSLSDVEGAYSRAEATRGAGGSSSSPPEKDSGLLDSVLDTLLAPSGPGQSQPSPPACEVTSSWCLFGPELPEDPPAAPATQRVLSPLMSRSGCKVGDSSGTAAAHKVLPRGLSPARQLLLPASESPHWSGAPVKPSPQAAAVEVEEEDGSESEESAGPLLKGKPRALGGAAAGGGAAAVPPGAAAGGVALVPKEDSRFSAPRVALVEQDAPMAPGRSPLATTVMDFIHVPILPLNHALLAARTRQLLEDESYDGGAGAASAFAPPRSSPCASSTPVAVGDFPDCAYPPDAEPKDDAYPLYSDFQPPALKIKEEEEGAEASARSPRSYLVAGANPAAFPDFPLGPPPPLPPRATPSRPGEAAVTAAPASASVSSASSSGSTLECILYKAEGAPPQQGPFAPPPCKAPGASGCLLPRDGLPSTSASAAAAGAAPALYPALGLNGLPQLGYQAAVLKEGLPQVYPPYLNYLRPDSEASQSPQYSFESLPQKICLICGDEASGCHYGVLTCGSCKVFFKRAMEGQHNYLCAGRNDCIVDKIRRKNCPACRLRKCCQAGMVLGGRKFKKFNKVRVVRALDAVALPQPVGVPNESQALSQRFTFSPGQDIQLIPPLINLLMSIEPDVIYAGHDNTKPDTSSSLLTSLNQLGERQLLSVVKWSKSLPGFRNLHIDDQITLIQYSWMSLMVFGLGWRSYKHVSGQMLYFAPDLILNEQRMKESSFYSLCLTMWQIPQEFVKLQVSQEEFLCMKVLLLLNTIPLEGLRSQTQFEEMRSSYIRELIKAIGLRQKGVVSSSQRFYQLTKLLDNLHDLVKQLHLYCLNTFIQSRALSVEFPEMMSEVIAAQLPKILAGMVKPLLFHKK

[2] = target: T1, Progesterone receptor; assay: (§2) Inhibition of progesterone receptor expressed in CHO cells by luciferase assay; assay type: cell-based
[3] = target: T2, Progesterone receptor (Homo sapiens) (UniProt P06401); assay: as §1; assay type: functional, cell-based
T2 sequence (whole entry): T1 sequence (P06401 whole entry)

[4] = target: T2, Progesterone receptor (Homo sapiens); assay: as §2; assay type: cell-based

Row | SMILES | EC50 [1] [nM] | IC50 [2] [nM] | Activity [3] | Activity [4]
1 | O=C(N[C@H]1CCCN2c3c(ccc(Cl)c3Cl)Oc3ccccc3[C@H]12)C(F)(F)F | 1.6 | – | – | –
2 | O=C(N[C@H]1CCCN2c3cc(F)ccc3Oc3ccccc3[C@H]12)C(F)(F)F | 198 | 730 | – | –
3 | O=C(N[C@H]1CCCN2c3ccc(Cl)cc3Oc3ccccc3[C@H]12)C(F)(F)F | 993 | 2220 | – | –
4 | O=C(N[C@H]1CCCN2c3cc(Cl)ccc3Sc3ccccc3[C@H]12)C(F)(F)F | 2.8 | – | – | –
5 | O=C(N[C@H]1CCCN2c3cc(Cl)ccc3Oc3ccccc3[C@H]12)C(F)(F)F | 3 | 4.3 | – | –
6 | N=C(N[C@H]1CCCN2c3cc(Cl)ccc3Oc3ccccc3[C@H]12)C(F)(F)F | 10.3 | 133 | – | –
7 | CC(=O)N[C@H]1CCCN2c3cc(Cl)ccc3Oc3ccccc3[C@H]12 | 4450 | 193 | – | –
8 | FC(F)(F)C(=S)N[C@H]1CCCN2c3cc(Cl)ccc3Oc3ccccc3[C@H]12 | 1.3 | – | – | –
9 | C=Cc1ccc2c(c1)N1CCC[C@H](NC(=O)C(F)(F)F)[C@H]1c1ccccc1O2 | > 1000 | – | – | –
10 | CN1c2ccccc2[C@@H]2[C@@H](NC(=O)C(F)(F)F)CCCN2c2cc(Cl)ccc21 | 9.8 | – | – | –
11 | O=C(N[C@H]1CCCN2c3cc(Cl)c(Cl)cc3Oc3ccccc3[C@H]12)C(F)(F)F | 38 | 318 | – | –
12 | O=C(N[C@H]1CCCN2c3cc(Cl)ccc3Oc3ccccc3[C@H]12)OCCl | 598 | – | – | –
13 | N[C@H]1CCCN2c3ccccc3Oc3ccccc3[C@H]12 | – | – | inactive | inactive
14 | N[C@H]1CCCN2c3cc(Cl)ccc3Oc3ccccc3[C@H]12 | 513 | – | – | inactive
15 | CC(=O)c1cccc2c1N1CCC[C@H](NC(=O)C(F)(F)F)[C@H]1c1ccccc1O2 | 0.96 | – | – | –
16 | CC(C)CN[C@H]1CCCN2c3cc(Cl)ccc3Oc3ccccc3[C@H]12 | 1340 | – | – | –
17 | CC(=O)c1ccc2c(c1)N1CCC[C@H](NC(=O)C(F)(F)F)[C@H]1c1ccccc1O2 | 258 | – | – | –
18 | CN(C(=O)C(F)(F)F)[C@H]1CCCN2c3cc(Cl)ccc3Oc3ccccc3[C@H]12 | 450 | – | – | –
19 | CCN[C@H]1CCCN2c3ccccc3Oc3ccccc3[C@H]12 | – | – | inactive | inactive
20 | O=C(NC1CCCN2c3cc(Cl)ccc3Oc3ccccc3C12)C(F)(F)F (racemic) | 10.6 | 43 | – | –
21 | O=C(N[C@H]1CCCN2c3c(Cl)cccc3Oc3ccccc3[C@H]12)C(F)(F)F | 19 | – | – | –
22 | C=Cc1cccc2c1N1CCC[C@H](NC(=O)C(F)(F)F)[C@H]1c1ccccc1O2 | 0.81 | – | – | –
23 | O=C(N[C@H]1CCCN2c3ccccc3Oc3ccccc3[C@H]12)C(F)(F)F | 222 | – | – | –
24 | CC(C)CNC(=S)N[C@H]1CCCN2c3cc(Cl)ccc3Oc3ccccc3[C@H]12 | – | 314 | inactive | –
25 | O=C(N[C@H]1CCCN2c3cc(Cl)ccc3Cc3ccccc3[C@H]12)C(F)(F)F | 2 | 26 | – | –
26 | O=C(N[C@@H]1CCCN2c3cc(Cl)ccc3Oc3ccccc3[C@@H]12)C(F)(F)F (racemic) | 54 | – | – | –

Reference: ChEMBL document CHEMBL1141479 (Bioorg Med Chem Lett, 2008)
